The text below walks through data of patent US11466010B2, “Toll-like receptor 8 (TLR8) specific antagonists and methods of making and uses thereof” (The Regents of the University of Colorado, a body corporate, priority 2017, dated 2022).

The target of this experiment is T1, human TLR8 (Homo sapiens, UniProt Q9NR97).
T1 construct: expressed in transfected cells; host or cells: HEK-Blue Null1 cells, lentiviral infection
T1 sequence (Q9NR97 27-1041): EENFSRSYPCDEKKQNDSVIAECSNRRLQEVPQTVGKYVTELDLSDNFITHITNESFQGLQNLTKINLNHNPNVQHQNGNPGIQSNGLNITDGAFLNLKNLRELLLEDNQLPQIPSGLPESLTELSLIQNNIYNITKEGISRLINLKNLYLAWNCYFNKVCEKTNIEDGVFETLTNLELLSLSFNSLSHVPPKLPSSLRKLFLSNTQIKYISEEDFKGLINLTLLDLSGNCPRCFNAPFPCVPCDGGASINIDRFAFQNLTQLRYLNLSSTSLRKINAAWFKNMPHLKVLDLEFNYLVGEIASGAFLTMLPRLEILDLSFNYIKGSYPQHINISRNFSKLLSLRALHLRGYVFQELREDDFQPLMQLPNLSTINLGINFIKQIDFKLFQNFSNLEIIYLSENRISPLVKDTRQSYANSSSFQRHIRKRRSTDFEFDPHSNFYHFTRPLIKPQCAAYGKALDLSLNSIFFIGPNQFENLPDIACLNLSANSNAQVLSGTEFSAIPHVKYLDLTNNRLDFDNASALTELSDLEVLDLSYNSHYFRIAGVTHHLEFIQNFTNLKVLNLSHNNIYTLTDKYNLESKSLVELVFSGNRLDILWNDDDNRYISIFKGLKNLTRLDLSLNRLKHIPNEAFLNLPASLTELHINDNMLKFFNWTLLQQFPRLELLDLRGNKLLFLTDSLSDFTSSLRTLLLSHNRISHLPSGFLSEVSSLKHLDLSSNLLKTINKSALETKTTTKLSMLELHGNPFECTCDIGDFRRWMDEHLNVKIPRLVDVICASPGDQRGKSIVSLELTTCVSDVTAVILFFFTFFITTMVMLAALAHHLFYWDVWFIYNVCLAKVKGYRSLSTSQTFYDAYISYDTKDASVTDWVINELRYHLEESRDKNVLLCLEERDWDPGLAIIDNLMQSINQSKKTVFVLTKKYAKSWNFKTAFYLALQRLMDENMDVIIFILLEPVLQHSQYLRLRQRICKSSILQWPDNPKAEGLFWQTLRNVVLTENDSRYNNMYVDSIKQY
Description: SEAP reporter assay in HEK-Blue TLR8 cells, R848-induced TLR8 signaling. The format is cell-based. Conditions: for inhibitory activity against TLR8 signaling: up to 20 μM. On the procedure: SEAP reporter assay: HEK-Blue TLR8 cells were seeded in tissue culture treated 96-well plates with a density of 7.5×10^4 cells/well in DMEM media supplemented with 10% FBS (phosphatases deactivated with heat). […] Plates are then incubated in humidified incubators containing 5% CO2 at 37° C. for 24 h, after which, 30 μL of culture media was transfer to a new plate and 100 μL of Quanti-Blue (Invivogen) was added, the plate was then incubated at 37° C. till color change (30 min-1 h). Readout of absorbance at 620 nm was quantified using Beckman-Coulter DTX 880 Multimode Detector. […] SEAP assays for each sample were conducted with three biological replicates, each in triplicate.
To establish a robust high throughput assay for TLR8 inhibitors, the inventors first engineered a cell line stably overexpressing the human TLR8 whose activation can be reported by the Secreted Embryonic Alkaline Phosphatase (SEAP) assay. TLR8-overexpresing HEK-Blue cells were prepared by lentiviral infection of HEK-Blue Null1 cells that have null or low basal expression of endogenous TLR genes. […] The TLR8-mediated NF-κB activation can be assessed by measuring the SEAP activity.

Setting [1] is: same column as E3, cell prints (nM), HEK-Blue hTLR8 cells.
Setting [2] is: pyrazolo[1,5-a]pyrimidine derivatives in HEK-Blue hTLR8 cells, ± SD, at least three biological replicates.
Setting [3] is: 1(2H)-phthalazinone and quinoline derivatives in HEK-Blue hTLR8 cells.
Where [4] appears, read: quinoline derivatives in HEK-Blue hTLR8 cells, ± SD, at least three biological replicates.

As a reminder, the IC50 is the concentration that inhibits the measured activity by half. A higher IC50 goes with weaker potency in that assay. In turn, `Cc1cc(-c2ccnc3ccccc23)cc(C)c1O` [Compound 36, 4-(3,5-Dimethyl-4-Hydroxyphenyl)quinoline] had an IC50 under setting [1] of 25.5 ± 10.7 nM.

On to `NC(=O)c1cnn2c(-c3cccc(F)c3)ccnc12` [Compound 6g], for which the IC50 under setting [2] was determined as 450 ± 90 nM.

The compound `Cc1cc(-c2c[nH]c3ccccc23)ccc1O` [Compound 47, 3-(4-Hydroxy-3-methylphenyl)-indole] came in with an IC50 under setting [3] of 2800 ± 690 nM.

For the compound `Cc1cc(-c2ncnc3ccccc23)ccc1O` [Compound 38, 4-(3-Methyl-4-Hydroxyphenyl)quinazoline], the IC50 under setting [3] came out at 350 ± 120 nM.

The compound `Cc1cc(-c2n[nH]c(=O)c3cccnc23)cc(C)c1O` [Compound 35] gave a 50% inhibitory concentration (IC50) under setting [3] of 13000 ± 2140 nM.

The compound `COc1cccc(-c2ccnc3c(C(N)=O)cnn23)c1` [Compound 6k] had an IC50 under setting [2] of 1200 nM.

Consider `Cc1cc(-c2ccnc3ccccc23)ccc1O` [Compound 37, 4-(3-Methyl-4-Hydroxyphenyl)quinoline], for which, under setting [1], inhibition was half-maximal at 38.6 ± 5.75 nM (IC50).

Regarding `Cc1cc(-c2ccc(O)c(C)c2)c2ccccc2n1` [Compound 11c], under setting [4], the IC50 worked out at 86 ± 11 nM.

The compound `COc1ccc(-c2ccc(O)c(C)c2)c2ccccc12` [Compound 1, 1-Methoxy-4-(4-hydroxy-3-methylphenyl)-naphthalene] yielded an IC50 under setting [3] of 7030 ± 360 nM.

In turn, `Cc1cc(-c2ccnc3[nH]ccc23)ccc1O` [Compound 49, 4-(4-Hydroxyl-3-methylphenyl)-7-azaindole] yielded an IC50 under setting [3] of 90 ± 30 nM.

As for `CCN(CC)C(=O)c1cnn2c(-c3cccc(C(F)(F)F)c3)ccnc12` [Compound 6o], the “inhibitory activity against TLR8 signaling” value is recorded as “no significant activity”.

Under setting [3], `Cc1cc(-c2ccc(O)c3ccccc23)ccc1O` [Compound 2, 4-(4-Hydroxy-3-methylphenyl)-1-naphthol] yielded an IC50 of 480 ± 430 nM.

In turn, `COc1ccc(-c2nn(C)c(=O)c3ccccc23)cc1` [Compound 10, 4-(4-Methoxyphenyl)-2-methyl-1(2H)-phthalazinone] yielded an IC50 under setting [3] of over 20000 nM.

`O=c1[nH]nc(-c2ccc(O)c(C(F)(F)F)c2)c2ccccc12` [Compound 26, 4-(4-Hydroxy-3-trifluoromethylphenyl)-1(2H)-phthalazinone]: the IC50 under setting [3] is over 20000 nM.

The compound `Cc1cc(-c2n[nH]c(=O)c3ccccc23)ccc1O` [Compound 21, 4-(4-Hydroxy-3-methylphenyl)-1(2H)-phthalazinone] had an IC50 under setting [3] of 1300 ± 320 nM.

For the compound `Cc1cc(-c2n[nH]c(=O)c3cccc(C)c23)ccc1O` [Compound 34, 4-(4-Hydroxy-3-methylphenyl)-5-methyl-1(2H)-phthalazinone], under setting [3], the IC50 is over 20000 nM.

`Cn1nc(-c2ccccc2)c2ccccc2c1=O` [Compound 6, 2-Methyl-4-phenyl-1(2H)-Phthalazinone] had an IC50 under setting [3] of over 20000 nM.

In turn, `O=c1[nH]nc(-c2ccccc2)c2ccccc12` [Compound 5, 4-Phenyl-1(2H)-phthalazinone] displayed an IC50 under setting [3] of over 20000 nM.

Regarding `Cc1cc(C)cc(-c2n[nH]c(=O)c3ccccc23)c1` [Compound 8, 4-(3,5-Dimethylphenyl)-1(2H)-phthalazinone], the IC50 under setting [3] is over 20000 nM.

As for `CC(C)c1cc(-c2n[nH]c(=O)c3ccccc23)cc(C(C)C)c1O` [Compound 23, 4-(4-Hydroxy-3,5-diisopropylphenyl)-1(2H)-phthalazinone], under setting [3], the IC50 is over 20000 nM.

`O=c1c2ccccc2c(-c2ccccc2)nn1-c1ccccc1` [Compound 33, 2,4-Diphenyl-1(2H)-phthalazinone]: under setting [3], the IC50 is over 20000 nM.

Under setting [3], `COc1ccc(-c2n[nH]c(=O)c3ccccc23)cc1` [Compound 9, 4-(4-Methoxyphenyl)-1(2H)-phthalazinone] registered an IC50 of over 20000 nM.

Under setting [2], `CCOC(=O)c1cnn2c(-c3cccc(C(F)(F)F)c3)ccnc12` [Compound 3a] returned an IC50 of 210 ± 43 nM.

In turn, `Cc1cc(-c2nn(C)c(=O)c3ccccc23)ccc1O` [Compound 30, 4-(4-Hydroxy-3-methylphenyl)-2-methyl-1(2H)-phthalazinone] displayed an IC50 under setting [3] of 330 ± 40 nM.

Regarding `Cc1cc(-c2nncc3ccccc23)ccc1O` [Compound 41, 1-(3-Methyl-4-Hydroxyphenyl)-phthalazine], the IC50 under setting [3] came out at 6750 ± 1300 nM. This IC50 is about 20-fold higher than that of the compound before.

For the compound `Cc1ccc(C)c(-c2n[nH]c(=O)c3ccccc23)c1` [Compound 7, 4-(2,5-Dimethylphenyl)-1(2H)-Phthalazinone], the IC50 under setting [3] was over 20000 nM.

For the compound `COC(=O)c1ccc(-c2n[nH]c(=O)c3ccccc23)cc1C` [Compound 16, 4-(4-Carbomethoxyl-3-methylphenyl)-1(2H)-phthalazinone], the IC50 under setting [3] was 8510 ± 3150 nM.

As to `NC(=O)c1cnn2c(-c3ccccc3C(F)(F)F)ccnc12` [Compound 6c], the IC50 under setting [2] was 230 ± 140 nM.

For the compound `COc1ccccc1-c1ccnc2c(C(N)=O)cnn12` [Compound 6j], the IC50 under setting [2] is 2310 nM.

Under setting [2], `NC(=O)c1cnn2c(-c3cccc(Cl)c3)ccnc12` [Compound 6h] came in with an IC50 of 280 ± 100 nM.

For `CC(=O)Oc1c(C)cc(-c2n[nH]c(=O)c3ccccc23)cc1C` [Compound 17, 4-(4-Acetoxy-3,5-dimethylphenyl)-1(2H)-phthalazinone], the half-maximal inhibitory concentration (IC50) under setting [3] came out at 4760 ± 420 nM.

In the case of `Cc1cccc(-c2ccnc3c(C(=O)O)cnn23)c1` [Compound 4b], the “inhibitory activity against TLR8 signaling” value is given as “did not show any inhibitory activity”.

For `Cc1cc(-c2n[nH]c(=O)c3ccccc23)cc(C)c1C(=O)O` [Compound 13, 4-(4-Carboxylic-3,5-dimethylphenyl)-1(2H)-phthalazinone], the IC50 under setting [3] is over 20000 nM.

`COc1ccc(-c2n[nH]c(=O)c3ccccc23)cc1[N+](=O)[O-]` [Compound 29, 4-(4-Methoxyl-3-nitrophenyl)-1(2H)-phthalazinone] registered an IC50 under setting [3] of over 20000 nM.

The compound `Cc1cc(-c2cccc3ccccc23)cc(C)c1O` [Compound 42, 1-(4-Hydroxy-3,5-dimethylphenyl)naphthalene] registered an IC50 under setting [3] of 1220 ± 100 nM.

For the compound `NC(=O)c1cnn2c(-c3cccc(C(F)(F)F)c3)ccnc12` [Compound 6a], where the note is “HEK-Blue TLR8 cells”, the “fold higher potency than 6c” value is 2 fold and the “fold higher potency than 6d” value was determined as 10 fold. In addition, the IC50 (HEK-Blue TLR8 cells, R848 as agonist) was found to be 130 nM.

With `NC(=O)c1cnn2c(-c3cccnc3)ccnc12` [Compound 6l], the IC50 by setting is: (HEK-Blue TLR8 cells) over 20000 nM; under setting [2], over 20000 nM.

With `CCc1cccc(-c2ccnc3c(C(N)=O)cnn23)c1` [Compound 6m], under setting [2], the IC50 came to 120 ± 23 nM.

Take `NC(=O)c1cnn2c(-c3cc(C(F)(F)F)cc(C(F)(F)F)c3)ccnc12` [Compound 6i]: the IC50 under setting [2] was 250 ± 130 nM.

For `CCOc1ccc(-c2nn(CC)c(=O)c3ccccc23)cc1C` [Compound 32, 4-(4-Ethoxyl-3-methylphenyl)-2-ethyl-1(2H)-phthalazinone], under setting [3], the IC50 was over 20000 nM.

In turn, `Cc1cc(-c2nncc3ccccc23)cc(C)c1O` [Compound 40, 1-(3,5-Dimethyl-4-Hydroxyphenyl)-phthalazine] gave an IC50 under setting [3] of 11400 ± 360 nM.

With `Cc1cc(-c2cncc3ccccc23)ccc1O` [Compound 39, 4-Isoquinolin-4-yl-2-methylphenol], under setting [3], the IC50 was 160 ± 20 nM.

As for `COc1c(C)cc(-c2n[nH]c(=O)c3ccccc23)cc1C` [Compound 11, 4-(4-Methoxy-3,5-dimethylphenyl)-1(2H)-phthalazinone], under setting [3], the 50% inhibitory concentration (IC50) was over 20000 nM.

`Cc1cc(-c2n[nH]c(=O)c3ccccc23)ccc1O` [Compound 14b] displayed an IC50 under setting [4] of 1300 ± 320 nM.

Under setting [4], `O=c1[nH]nc(-c2ccccc2)c2ccccc12` [Compound 14a] gave an IC50 of over 20000 nM.

In turn, `Cc1cc(-c2ccnc3cccnc23)ccc1O` [Compound 50, 4-(4-Hydroxyl-3-methylphenyl)-1,5-naphthyridine] yielded an IC50 under setting [3] of 300 ± 70 nM.
